Assay results reported in ChEMBL document CHEMBL1149816, “Class II-selective histone deacetylase inhibitors. Part 2: alignment-independent GRIND 3-D QSAR, homology and docking studies” (Eur J Med Chem, 2008).

How the values were obtained:
Histone deacetylase HD1B = Histone deacetylase HD1B (Zea mays, UniProt Q9ZTP8); experiment: Inhibition of maize histone deacetylase 1B
[1] = Inhibition of maize histone deacetylase 1A; parameters: species or system Zea mays
Zea mays = experiment: Selectivity for IC50 of maize histone deacetylase 1A over IC50 of maize histone deacetylase 1B

Histone deacetylase HD1B, sequence (Q9ZTP8 whole entry): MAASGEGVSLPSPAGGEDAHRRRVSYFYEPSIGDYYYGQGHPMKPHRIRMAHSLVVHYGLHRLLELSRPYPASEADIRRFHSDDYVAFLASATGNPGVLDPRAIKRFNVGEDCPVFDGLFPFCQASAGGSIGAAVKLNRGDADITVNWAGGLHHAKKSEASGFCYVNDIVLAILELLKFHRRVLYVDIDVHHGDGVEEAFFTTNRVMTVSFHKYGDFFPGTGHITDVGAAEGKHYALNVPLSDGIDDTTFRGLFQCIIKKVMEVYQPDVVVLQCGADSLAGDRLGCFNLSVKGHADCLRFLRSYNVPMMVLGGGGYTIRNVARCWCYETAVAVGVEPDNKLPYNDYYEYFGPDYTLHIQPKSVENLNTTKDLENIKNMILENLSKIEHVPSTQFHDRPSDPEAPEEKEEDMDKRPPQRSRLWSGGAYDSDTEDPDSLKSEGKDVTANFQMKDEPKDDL

Row | Structure (SMILES) | IC50 (Histone deacetylase HD1B; read-out: IC50) | IC50 [1] | Ratio IC50 (Zea mays) | IC50 (Histone deacetylase HD1B; read-out: pIC50 (converted)) | pIC50 [1]
1 | CC(/C=C/C(=O)NO)=C\[C@@H](C)C(=O)c1ccc(N(C)C)cc1 [TRICHOSTATIN] | – | 0.8 nM | – | – | –
2 | Cn1cc(/C=C/C(=O)c2ccc(F)c(F)c2)cc1/C=C/C(=O)NO | 13500 nM | 2200 nM | 6.1 | – | 5.658
3 | Cn1cc(/C=C/C(=O)c2ccc3ccccc3c2)cc1/C=C/C(=O)NO | 1800 nM | 40 nM | 45 | – | –
4 | C/C(=C\c1cc(/C=C/C(=O)NO)n(C)c1)C(=O)c1ccccc1 | 570 nM | 780 nM | – | – | –
5 | Cn1cc(/C=C/C(=O)c2cccs2)cc1/C=C/C(=O)NO | 25800 nM | 16300 nM | 1.6 | – | –
6 | Cn1cc(/C=C2\CCc3ccccc3C2=O)cc1/C=C/C(=O)NO | 59000 nM | 3400 nM | 17.3 | 807 nM | 6.777
7 | COc1ccc(C(=O)/C=C/c2cc(/C=C/C(=O)NO)n(C)c2)cc1 | 800 nM | 790 nM | – | – | –
8 | Cn1cc(/C=C/C(=O)c2cccc(Cl)c2Cl)cc1/C=C/C(=O)NO | 17200 nM | 6800 nM | 2.5 | – | 6.243
9 | Cn1cc(/C=C/C(=O)c2ccccc2Br)cc1/C=C/C(=O)NO | 180 nM | 210 nM | – | – | –
10 | Cn1cc(/C=C/C(=O)c2ccc3c(c2)CCO3)cc1/C=C/C(=O)NO | 6400 nM | 2100 nM | 3 | – | –
11 | Cc1ccccc1C(=O)/C=C/c1cc(/C=C/C(=O)NO)n(C)c1 | 390 nM | 60 nM | 6.5 | – | –
12 | Cn1cc(/C=C/C(=O)c2ccc(-c3ccccc3)cc2)cc1/C=C/C(=O)NO | 31800 nM | 2200 nM | 14.4 | – | –
13 | Cn1cc(/C=C2\CCCc3ccccc3C2=O)cc1/C=C/C(=O)NO | 510 nM | 196 nM | 2.6 | 1400 nM | 6.301
14 | Cn1cc(/C=C/C(=O)c2ccc(Br)cc2)cc1/C=C/C(=O)NO | 24300 nM | 20300 nM | 1.2 | – | –
15 | Cn1cc(/C=C/C(=O)c2ccc(Cl)c(Cl)c2)cc1/C=C/C(=O)NO | 21300 nM | 5900 nM | 3.6 | – | 5.229
16 | Cn1cc(/C=C/C(=O)c2cccc(OC(F)(F)F)c2)cc1/C=C/C(=O)NO | 298000 nM | 90000 nM | 3.3 | – | 4.046
17 | Cn1cc(/C=C/C(=O)c2ccccc2F)cc1/C=C/C(=O)NO | 3400 nM | 100 nM | 34 | – | –
18 | Cn1cc(/C=C/C(=O)c2cccc3ccccc23)cc1/C=C/C(=O)NO | 330 nM | 10 nM | 33 | – | –
19 | COc1cccc(C(=O)/C=C/c2cc(/C=C/C(=O)NO)n(C)c2)c1 | 600 nM | 390 nM | 1.5 | – | –

Second part, the molecule after the results:

Row | IC50 (Histone deacetylase HD1B; read-out: IC50) | IC50 [1] | Ratio IC50 (Zea mays) | IC50 (Histone deacetylase HD1B; read-out: pIC50 (converted)) | pIC50 [1] | Structure (SMILES)
20 | 4500 nM | 220 nM | 20.4 | – | – | CC/C(=C\c1cc(/C=C/C(=O)NO)n(C)c1)C(=O)c1ccccc1
21 | 1400 nM | 500 nM | 2.8 | 621 nM | 6.733 | Cn1cc(/C=C/C(=O)c2ccc(F)c(Cl)c2)cc1/C=C/C(=O)NO
22 | 22600 nM | 13800 nM | 1.6 | – | – | Cn1cc(/C=C/C(=O)c2ccsc2)cc1/C=C/C(=O)NO
23 | 17000 nM | 2800 nM | 6.1 | – | 5.523 | Cn1cc(/C=C/C(=O)c2ccc(Cl)cc2Cl)cc1/C=C/C(=O)NO
24 | 807 nM | 167 nM | 4.8 | 17000 nM | 5.553 | Cn1cc(/C=C/C(=O)c2c(F)cccc2F)cc1/C=C/C(=O)NO
25 | 4800 nM | 500 nM | 9.6 | – | – | Cc1ccc(C(=O)/C=C/c2cc(/C=C/C(=O)NO)n(C)c2)cc1
26 | 260 nM | 190 nM | – | – | – | Cn1cc(/C=C/C(=O)c2ccccc2)cc1/C=C/C(=O)NO
27 | 31400 nM | 440 nM | 71.4 | – | – | Cn1cc(/C=C/C(=O)c2cccc(Cl)c2)cc1/C=C/C(=O)NO
28 | 1600 nM | 50 nM | 32 | – | – | Cn1cc(/C=C/C(=O)c2ccccc2Cl)cc1/C=C/C(=O)NO
29 | 19700 nM | 1200 nM | 16.4 | – | – | Cn1cc(/C=C/C(=O)c2ccco2)cc1/C=C/C(=O)NO
30 | 23500 nM | – | 11.2 | – | 5.678 | Cn1cc(/C=C/C(=O)c2cc(F)cc(F)c2)cc1/C=C/C(=O)NO
31 | 159000 nM | 9300 nM | 17.1 | – | 5.032 | Cn1cc(/C=C/C(=O)c2cccc(C(F)(F)F)c2)cc1/C=C/C(=O)NO
32 | 2500 nM | 170 nM | 14.7 | – | – | Cc1cccc(C(=O)/C=C/c2cc(/C=C/C(=O)NO)n(C)c2)c1
33 | 621 nM | 185 nM | 3.4 | – | 6.708 | Cn1cc(/C=C/C(=O)c2ccc3c(c2)OCCO3)cc1/C=C/C(=O)NO
34 | 38800 nM | 220 nM | 176 | – | – | Cn1cc(/C=C/C(=O)c2cccc(F)c2)cc1/C=C/C(=O)NO
35 | 16600 nM | 800 nM | 20.8 | 800 nM | 6.097 | Cn1cc(/C=C/C(=O)c2cc(F)ccc2F)cc1/C=C/C(=O)NO
36 | 170 nM | 160 nM | – | – | – | COc1ccccc1C(=O)/C=C/c1cc(/C=C/C(=O)NO)n(C)c1
37 | 12000 nM | 3000 nM | 4 | 59000 nM | 5.469 | Cn1cc(/C=C/C(=O)c2cc3ccccc3o2)cc1/C=C/C(=O)NO
38 | 24900 nM | 15700 nM | 1.6 | – | – | Cn1cc(/C=C/C(=O)c2ccc(F)cc2)cc1/C=C/C(=O)NO
39 | 29400 nM | 18600 nM | – | – | – | Cn1cc(/C=C/C(=O)c2ccc(Cl)cc2)cc1/C=C/C(=O)NO
40 | 480 nM | 1600 nM | – | – | – | Cn1cc(/C=C/C(=O)c2cccc(Br)c2)cc1/C=C/C(=O)NO
